In test [1] the test system is Escherichia coli. Put plainly: Antibacterial activity against Escherichia coli expressing recombinant blaNDM-1 gene assessed as inhibition of bacterial growth incubated for 20 hrs by broth microdilution method. It counts as functional. (In general: Dilution methods test growth across graded concentrations, often in twofold steps.)
Test [2] relates to Escherichia coli. Put plainly: Antibacterial activity against wild type Escherichia coli assessed as inhibition of bacterial growth incubated for 20 hrs by broth microdilution method. It counts as functional.
Test [3] deals with Klebsiella pneumoniae. Put plainly: Antibacterial activity against Klebsiella pneumoniae assessed as inhibition of bacterial growth incubated for 20 hrs by broth microdilution method. It counts as functional.
Test [4] has as its system Staphylococcus aureus. Nature of the test: Antibacterial activity against methicillin-resistant Staphylococcus aureus assessed as inhibition of bacterial growth incubated for 20 hrs by broth microdilution method. It counts as functional.
Test [5] has as its system Escherichia coli. Nature of the test: Antibacterial activity against Escherichia coli expressing blaNDM-1 gene assessed as inhibition of bacterial growth incubated for 20 hrs by broth microdilution method. It counts as functional.
Test [6] concerns Bacillus subtilis. Put plainly: Antibacterial activity against Bacillus subtilis assessed as inhibition of bacterial growth incubated for 20 hrs by broth microdilution method. It counts as functional.
In test [7] the test system is Staphylococcus aureus. Put plainly: Antibacterial activity against wild type Staphylococcus aureus assessed as inhibition of bacterial growth incubated for 20 hrs by broth microdilution method. It counts as functional.
In test [8] the test system is Xanthomonas axonopodis. Nature of the test: Antimicrobial activity against Xanthomonas axonopodis by turbidimetric analysis. It counts as functional, organism-based.
The nature of test [9]: Antimicrobial activity against Pseudomonas syringae pv. actinidiae by turbidimetric analysis. It counts as functional.
Test [10] concerns Xanthomonas oryzae. Put plainly: Antimicrobial activity against Xanthomonas oryzae by turbidimetric analysis. It counts as functional, organism-based.
Test [11] relates to Mycobacterium tuberculosis. Put plainly: Antibacterial activity against Mycobacterium tuberculosis assessed as inhibition of bacterial growth. It counts as functional.
For test [12], the system named is Staphylococcus aureus. Put plainly: Antibacterial activity against Staphylococcus aureus assessed as inhibition of bacterial growth. It counts as functional, organism-based.
Test [13] relates to Bacillus subtilis. Nature of the test: Antibacterial activity against Bacillus subtilis assessed as inhibition of bacterial growth. It counts as functional.
For test [14], the system named is Candida albicans. Nature of the test: Antimicrobial activity against Candida albicans assessed as zone of inhibition incubated for 24 hrs by agar diffusion method. It counts as functional. On the technique in general: Agar diffusion results depend on both activity and mobility in agar.
Test [15] has as its system Proteus vulgaris. Nature of the test: Antimicrobial activity against Proteus vulgaris NCIM 2813 assessed as zone of inhibition incubated for 24 hrs by agar diffusion method. It counts as functional.
In test [16] the test system is Staphylococcus aureus. Nature of the test: Antimicrobial activity against Staphylococcus aureus NCIM 2120 assessed as zone of inhibition incubated for 24 hrs by agar diffusion method. It counts as functional.
The test system of test [17] is Escherichia coli. Put plainly: Antimicrobial activity against Escherichia coli NCIM 2065 assessed as zone of inhibition incubated for 24 hrs by agar diffusion method. It counts as functional.
Test [18] deals with A549. Nature of the test: Cytotoxicity against human A549 cells incubated for 48 hrs by sulforhodamine B assay. It counts as functional.
Test [19] deals with HeLa. Nature of the test: Cytotoxicity against human HeLa cells incubated for 48 hrs by sulforhodamine B assay. It counts as functional. For orientation: Sulforhodamine B stains cellular protein and so reports cell mass.
The subject of test [20] is Caulobacter vibrioides. Nature of the test: Antibacterial activity against Caulobacter crescentus assessed as inhibition of bacterial growth incubated for 24 hrs. It counts as functional.
In test [21] the test system is Staphylococcus aureus. Put plainly: Antibacterial activity against Staphylococcus aureus assessed as inhibition of bacterial growth incubated for 24 hrs. It counts as functional.
Test [22] concerns Rhodotorula glutinis. Put plainly: Antifungal activity against Rhodotorula glutinis DSM 10134 assessed as inhibition of fungal growth incubated for 24 hrs by serial dilution method. It counts as functional.
The subject of test [23] is Bacillus subtilis. Nature of the test: Antibacterial activity against Bacillus subtilis DSM 10 assessed as inhibition of bacterial growth incubated for 24 hrs by serial dilution method. It counts as functional.
The subject of test [24] is Mucor hiemalis. Nature of the test: Antifungal activity against Mucor hiemalis DSM 2656 assessed as inhibition of fungal growth incubated for 24 hrs by serial dilution method. It counts as functional.
The test system of test [25] is Staphylococcus aureus. Nature of the test: Antibacterial activity against Staphylococcus aureus DSM 346 assessed as inhibition of bacterial growth incubated for 24 hrs by serial dilution method. It counts as functional.
The subject of test [26] is Schizosaccharomyces pombe. Nature of the test: Antifungal activity against Schizosaccharomyces pombe DSM 70572 assessed as inhibition of fungal growth incubated for 24 hrs by serial dilution method. It counts as functional.
The test system of test [27] is Mycolicibacterium smegmatis. Nature of the test: Antibacterial activity against Mycobacterium smegmatis DSM ATCC 700084 assessed as inhibition of bacterial growth incubated for 24 hrs by serial dilution method. It counts as functional.
The test system of test [28] is Mycolicibacterium smegmatis. Nature of the test: Antimicrobial activity against Mycobacterium smegmatis assessed as inhibition of microbial growth incubated for 18 to 20 hrs by broth microdilution method. It counts as functional. To be noted: time 18-20 hrs.
The test system of test [29] is Staphylococcus aureus. Nature of the test: Antimicrobial activity against methicillin-resistant Staphylococcus aureus assessed as inhibition of microbial growth incubated for 18 to 20 hrs by broth microdilution method. It counts as functional. Conditions: time 18-20 hrs.
The subject of test [30] is Candida albicans. Put plainly: Antimicrobial activity against Candida albicans assessed as inhibition of microbial growth incubated for 18 to 20 hrs by broth microdilution method. It counts as functional. To be noted: time 18-20 hrs.
The subject of test [31] is Bacillus mycoides. Nature of the test: Antimicrobial activity against Bacillus mycoides assessed as inhibition of microbial growth incubated for 18 to 20 hrs by broth microdilution method. It counts as functional. To be noted: time 18-20 hrs.
For test [32], the system named is Staphylococcus aureus. Nature of the test: Antibacterial activity against Staphylococcus aureus assessed as inhibition of bacterial growth by broth microdilution method. It counts as functional.
Test [33] relates to Pichia kudriavzevii. Put plainly: Antifungal activity against Candida krusei MTCC 9215 assessed as inhibition of fungal growth by broth microdilution method. It counts as functional.
The subject of test [34] is Pseudomonas aeruginosa. Nature of the test: Antibacterial activity against Pseudomonas aeruginosa assessed as inhibition of bacterial growth by broth microdilution method. It counts as functional.
The test system of test [35] is Candida albicans. Nature of the test: Antifungal activity against Candida albicans clinical isolate Gu5 assessed as inhibition of fungal growth by broth microdilution method. It counts as functional.
For test [36], the system named is Candida parapsilosis. Put plainly: Antifungal activity against Candida parapsilosis MTCC 7043 assessed as inhibition of fungal growth by broth microdilution method. It counts as functional. To be noted: Lodderomyces parapsilosis.
For test [37], the system named is Candida tropicalis. Put plainly: Antifungal activity against Candida tropicalis MTCC 9038 assessed as inhibition of fungal growth by broth microdilution method. It counts as functional.
Test [38] deals with Candida albicans. Nature of the test: Antifungal activity against Candida albicans MTCC 3017 assessed as inhibition of fungal growth by broth microdilution method. It counts as functional.
Test [39] concerns Escherichia coli. Nature of the test: Antibacterial activity against Escherichia coli assessed as inhibition of bacterial growth by broth microdilution method. It counts as functional.
In test [40] the test system is Nakaseomyces glabratus. Nature of the test: Antifungal activity against Candida glabrata MTCC 3814 assessed as inhibition of fungal growth by broth microdilution method. It counts as functional.
The subject of test [41] is Candida albicans. Nature of the test: Antifungal activity against Candida albicans SC5314 assessed as inhibition of fungal growth by broth microdilution method. It counts as functional.
Test [42] deals with Klebsiella pneumoniae. Put plainly: Antibacterial activity against Klebsiella pneumoniae assessed as inhibition of bacterial growth by broth microdilution method. It counts as functional.
For test [43], the system named is Candida albicans. Nature of the test: Antifungal activity against Candida albicans clinical isolate DSY294 assessed as inhibition of fungal growth by broth microdilution method. It counts as functional.
Test [44] deals with Candida albicans. Put plainly: Antifungal activity against Candida albicans clinical isolate DSY296 assessed as inhibition of fungal growth by broth microdilution method. It counts as functional.
For test [45], the system named is Candida albicans. Put plainly: Antifungal activity against Candida albicans clinical isolate Gu4 assessed as inhibition of fungal growth by broth microdilution method. It counts as functional.
For test [46], the system named is Staphylococcus aureus. Put plainly: Antibacterial activity against methicillin-sensitive Staphylococcus aureus assessed as inhibition of bacterial growth incubated for 24 hrs by two-fold serial dilution assay. It counts as functional.
The subject of test [47] is Staphylococcus aureus. Nature of the test: Antibacterial activity against methicillin-resistant Staphylococcus aureus assessed as inhibition of bacterial growth incubated for 24 hrs by two-fold serial dilution assay. It counts as functional.

Values after ≈ are worked out from the molar mass of the structure shown. Some results are limits rather than exact numbers.

With `Fc1cc(F)c2c(c1)[nH]c1ccc(F)cc12`, the MIC in test [1] is 1.5 µg/mL; in test [2] it was 1.5 µg/mL (≈ 6.78 µM); in [3] it was 1.5 µg/mL (≈ 6.78 µM); in test [4], 1.5 µg/mL (≈ 6.78 µM); in [5], 1.5 µg/mL (≈ 6.78 µM); in [6] it was 1.5 µg/mL (≈ 6.78 µM). For the same compound, the MIC in [7] was 1.5 µg/mL (≈ 6.78 µM).
Regarding `O=C1COc2ccccc2N1CC(O)CN1CCN(CC(O)Cn2c3ccccc3c3ccccc32)CC1` (stereo not given), the EC50 in test [8] was found to be 4.71 µg/mL (≈ 9.15 µM); in test [9] it was 8.5 µg/mL (≈ 16.5 µM); in test [10], 4.95 µg/mL (≈ 9.62 µM).
On to `Cc1cc2c([nH]c3ccc4c(c32)C=CC(C)(C)O4)c(-c2c(O)c(C)cc3c2[nH]c2ccc4c(c23)C=CC(C)(C)O4)c1O` [CLAUSENAWALLINE A], for which, in [11], the MIC came out at 12.5 µg/mL (≈ 22.5 µM).
Take `COC12C(=O)N(C)C(=O)C1(OC)c1c([nH]c3cc(Cl)ccc13)-c1[nH]c3cc(Cl)ccc3c12` (stereo not given): the MIC in test [12] and in [13] was 3.1 µg/mL (≈ 6.59 µM) in each case.
As to `Cn1c2ccccc2c2cc(/C=C/C(=O)c3ccc([N+](=O)[O-])cc3)ccc21`, the “inhibition zone (IZ)” value was determined as 5 mm in test [14], 4 mm in test [15], 4.5 mm in test [16] and 2.5 mm in test [17].
`CC(C)=CCc1ccc2c([nH]c3cc(O)c(C=O)cc32)c1O`: the results for the IC in test [18] and in [19] were 5.25 µg/mL and 1.91 µg/mL, respectively.
For `OCC(CO)(CO)NCC(O)Cn1c2ccc(Cl)cc2c2cc(Cl)ccc21` (stereo not given), the figures for the MIC in [20] and in test [21] were 15 µM (≈ 6.2 µg/mL) and 50 µM (≈ 20.7 µg/mL), respectively.
On to `OC(CNCc1cn(-c2ccc(F)cc2)nn1)Cn1c2ccccc2c2ccccc21` (stereo not given), for which the EC50 worked out at 2.87 µg/mL (≈ 6.91 µM) in test [8], 14.2 µg/mL (≈ 34.2 µM) in [9] and 3.36 µg/mL (≈ 8.09 µM) in [10].
Regarding `Clc1ccc2[nH]c3c(c2c1)CCCC31CCCn2ccnc21` (stereo not given), the MIC in test [22], in test [23], in test [24], in test [25], in test [26] and in [27] was 53.2 µM (≈ 16.6 µg/mL) in each case.
For `COc1ccc2[nH]c3c(O)cccc3c2c1Cl`, the MIC in [28], in test [29], in test [30] and in [31] was 32 µg/mL throughout.
As to `COc1cc2c(cc1O)[nH]c1c3c(c(C)cc12)OC(C)(C)C=C3`, the MIC90 in test [32] was 3.12 µg/mL (≈ 10.1 µM); in test [33] it was 12.5 µg/mL (≈ 40.4 µM); in test [34], over 100 µg/mL; in test [35] it was 12.5 µg/mL (≈ 40.4 µM); in [36], 12.5 µg/mL (≈ 40.4 µM); in [37], 12.5 µg/mL (≈ 40.4 µM). Besides, the MIC90 in test [38] was 12.5 µg/mL (≈ 40.4 µM); in test [39], over 100 µg/mL; in test [40] it was 12.5 µg/mL (≈ 40.4 µM); in test [41], 12.5 µg/mL (≈ 40.4 µM); in [42], 3.12 µg/mL (≈ 10.1 µM); in [43], 12.5 µg/mL (≈ 40.4 µM). The MIC90 in test [44] and in [45] was 12.5 µg/mL (≈ 40.4 µM) each time.
With `N#Cc1ccc2c(c1)[nH]c1c(-c3c[nH]c4ccc(C#N)cc34)ccc(-c3c[nH]c4ccc(C#N)cc34)c12`, the values for the MIC in test [46] and in [47] were 16 µg/mL (≈ 33.9 µM) and 8 µg/mL (≈ 16.9 µM), respectively.

A word on the MIC: it is the least concentration at which growth counts as inhibited. As a reminder, the EC50 is the concentration giving half of the maximal effect. For orientation: MIC90 means an inhibitory concentration at the 90% level, which refers to growth in some studies and to a panel of isolates in others.

The values above are taken from ChEMBL document CHEMBL5532637, “Antimicrobial activity of natural and semi-synthetic carbazole alkaloids” (Eur J Med Chem, 2023).
